For data set [1], the system named is CD1 and BALB/c mice. The experiment in a line: Acetaminophen lethality, pilot studies in CD1 and BALB/c mice. The format is in vivo, mouse. The note with it: 400 mg/kg i.p., 12 h fast. As for the experimental part: Protocol 2: In the second series of studies, CD1, CXCR2ko and CXCR2wt mice were allowed free access to water for 12 h prior to an i.p. injection of 400 mg/kg acetaminophen. All acetaminophen challenged mice were fasted in this manner because previous studies have shown that fasting promotes hepatic susceptibility to acetaminophen toxicity by decreasing the inactivation of chemically reactive metabolites […], allowing these metabolites to bind hepatocyte proteins and cause cell damage (Whitcomb and Block, 1994; Pessayre et al., 1979; each incorporated herein by reference). […] Two hours prior to acetaminophen challenge, CD1 mice (n=1 0/group) were injected with 0.5 ml of normal rabbit serum or anti-mouse MIP-2 antiserum, and mouse survival was monitored for the subsequent 4 days. CXCR2ko and CXCR2wt mice (n=5/group) were injected i.p. with the same dose of acetaminophen, and mouse survival was monitored for 4 days.

Data set [2] has as its system CBA/J mice. The experiment in a line: Acetaminophen dose response in CBA/J mice. The note with it: 8 h fast. The format is in vivo, mouse. As to the method: (§1) Six wk old female CBA/J mice (Jackson Laboratory, Bar Harbor, Me.) were fasted, but with free access to water, for 8 h prior to intraperitoneal (I.P.) injection of acetaminophen (Sigma) at 200 or 300 mg/kg, dissolved in normal saline. After injection, the animals were allowed free access to food. Mice were euthanized and liver was taken from the mice at various time points after acetaminophen injection into the mice.
To determine the level of acetaminophen that was necessary to induce liver damage, a dose response was performed. In these studies, normal CBA/J mice were fasted for 8 h and subsequently given an intraperitoneal injection of acetaminophen dissolved in PBS or PBS alone for control. Mouse survival was followed for 4 days when the study was terminated. 20 mice/group were used in 2 separate studies.

The subject of data set [3] is CBA/J mice treated with acetaminophen. As to the kind of experiment: Exogenous SCF at lethal acetaminophen dose. In kind it is in vivo, mouse. As to the method: as §1
Hepatic damage was measured using an AXIO-HOME microscope by 2 independent investigators. Sections of liver tissue (2 from each animal) were stained with hematoxylin and eosin and the area of hepatic damage was outlined and expressed as a % of total liver area examined.
In order to finally determine whether SCF has a role in protecting the animals from acetaminophen toxicity, 1 μg of recombinant murine SCF or saline was injected i.v. at the time of or within 30 min. of acetaminophen challenge. The survival of animals was recorded for 4 days and the study was terminated. % Survival data was collected from 2 separate studies with a total of 20 mice in each treatment group.

For data set [4], the system named is hepatocytes.

Turning to `CC(=O)Nc1ccc(O)cc1` [acetaminophen], the Lethality result in data set [1] is reported as “approximately 10%”; in data set [2] (200 mg/kg i.p.), “no lethality”; in data set [2] (300 mg/kg i.p., by 48 h), around 100%.

B1: SCF: recombinant murine stem cell factor (protein)
chain: KEICGNPVTDNVKDITKLVANLPNDYMITLNYVAGMDVLPSHCWLRDMVIQLSLSLTTLLDKFSNISEGLSNYSIIDKLGKIVDDLVLCMEENAPKNIKESPKRPETRSFTPEEFFSIFNRSIDAFKDFMVASDTSDCVLSSTLGPEKDSRVSVTKPFMLPPVA
The molecule B1 gave a Survival in data set [3] (1 ug i.v. at or within 30 min of lethal acetaminophen dose, 4 days) of 90%. Besides, in data set [3] (300 mg/kg acetaminophen, 1 ug SCF), the Liver histology result is recorded as “no necrotic areas”. The “Hepatocyte proliferation in vitro” value in data set [4] was “can directly induce hepatocyte proliferation in vitro”.

These data come from patent US6719969B1, “Treatment of liver disease and injury with CXC chemokines” (The Regents of The University of Michigan, priority 1999, dated 2004).
